Structures are written as SMILES. Some results are limits rather than exact numbers.

The results in this text go back to patent US8546421B1, “Oncogenic-RAS-signal dependent lethal compounds” (The Trustees of Columbia University in the City of New York, priority 2007, dated 2013).

The subject of assay [1] is NCI/ADR-RES. Description: NCI60 anti-cancer screening. Conditions: for GI 100%: Breast Cancer; for GI50 / CC50: Homo sapiens; for CC50: read-out: LC 50%.
The test system of assay [2] is VDAC3 in HT1080 cells. The experiment in a line: Drug sensitivity after shRNA knockdown of VDAC3. Type of assay: cell-based, human. The following applies: shRNAs targeting VDAC3, alamar blue. Here is the method: On day one, 3×10^5 Calu-1 cells or 2×10^5 HT1080 cells were seeded in 10-cm dishes; on day 2, frozen virus stock was thawed at 37° C., hexadimethrine bromide (polybrene) (Sigma, cat.#H9268) was added to the virus solution at a final concentration of 8 μg/mL and growth media from cell culture was replaced with the virus/polybrene mixture. The culture was returned to the tissue culture incubator for 2 hours, with rocking of the dishes every 30 min in order to prevent drying. After 2 h, 10 mL growth medium was added, the culture was incubated for 2 days, and cells stably expressing shRNA were selected by adding puromycin (Sigma, cat.#P9620) at a final concentration of 1.5 μg/mL.
On the day of experiment, assay plates were prepared by seeding 3,000 HT1080, HT1080-pLKO, HT1080-TfR1 KD, Calu-1, Calu-1-pLKO, or Calu-1-509 cells per well in 36 μL of growth media to black, clear bottom 384-well plates. Also, assay plates were prepared by seeding 1,500 shRNA infected HT1080 or Calu-1 cells per well. Cells in assay plates were treated with each lethal compound in a 2-fold dilution series by transferring 4 μL solution from a 10× lethal plate of Erastin, Compound 3, Compound 27, or Compound 36. […] Percent growth inhibition (% GI) was calculated using fluorescence intensity values.
For orientation: Alamar Blue is a resazurin reagent that responds to reducing activity.

The subject of assay [3] is UO-31. Description: NCI60 anti-cancer screening. Conditions: for GI50 / CC50: Homo sapiens; for GI50 / GI 100%: UO-31; for CC50: UO-31, read-out: LC 50%; for GI 100%: Renal Cancer.
Assay [4] deals with HL-60(TB). Description: cells. The following applies: Homo sapiens; for GI50: HL-60; for CC50: HL-60, read-out: LC 50%.
Assay [5] deals with HOP-92. Description: NCI60 anti-cancer screening. Conditions: for GI 100% / GI50: HOP-92; for GI 100%: Non-small cell lung carcinoma; for GI50 / CC50: Homo sapiens; for CC50: HOP-92, read-out: LC 50%.
Assay [6] deals with BJ-TERT/LT/ST/RAS^V12 cells. Description: Counter screening with biologically active compounds. Conditions: for biologically active compounds that suppress compound-induced cell death: 36 bioactive compounds of Table 1, 24 hours, alamar blue; for effect of MEK1/2 inhibitor (U0126) on compound-induced cell death: U0126 10 uM. The assay is classed as cell-based, human. Here is the method: Biologically active compounds listed in Table 1 were dissolved in BJ medium at 10× final concentration and aliquoted into eppendorf tubes. 100 μL of each 10× solution was transferred to column 1 to column 12 or column 13 to column 24 of a single row in a 384-well daughter plate. This plate was designated as ‘10× biologically active plate’. In order to prepare lethal compound solution, Erastin and compounds 3, 6, 27, and 36 were dissolved in BJ medium at a concentration of 100 μg/mL, 400 μg/mL, 400 μg/mL, 100 μg/mL, and 200 μg/mL, respectively. Empty daughter plates were filled with 50 μL BJ media except for columns 5 and 13 where 100 μL of each lethal solution was transferred. After lethal solution transfer, 2-fold dilution series across columns 5 to 12 and columns 13 to 20 was made by transferring 50 μL compound solution to the next column successively (8-point dilution series), with mixing. These five plates were each designated ‘10× lethal plate’. Five assay plates were prepared by seeding 4,000 BJ-TERT/LT/ST/RAS^V12 cells per well in 32 μL of growth media in black, clear bottom 384-well plates. Cells in assay plates were first treated with biologically active compounds by transferring 4 μL from the 10× inhibitor plate. Cells were then treated with each lethal compound in a 2-fold dilution series by transferring 4 μL solution from each 10× lethal plate. […] Percent growth inhibition (% GI) was calculated by the following formula using fluorescence intensity values: % GI=100*(1−(X−N)/([…])) wherein X is the fluorescent intensity value measured at 590 nm for cells treated with biologically active compound and lethal compound; N is the fluorescent intensity value measured at 590 nm for a control containing no cells (i.e. biologically active compound in growth media); and P is the fluorescent intensity value measured at 590 nm for a control containing no lethal compound (i.e., cells treated with biologically active compound). Counter Screening with Iron Chelators
A general note: The purpose of a counterscreen is to sort out artefacts and off-target activity.

The test system of assay [7] is OVCAR-3. Description: cells. Conditions: Homo sapiens; for GI50: OVCAR-3; for CC50: OVCAR-3, read-out: LC 50%.
The test system of assay [8] is SN12C. Description: NCI60 anti-cancer screening. The following applies: for GI50 / CC50: Homo sapiens; for CC50: read-out: LC 50%; for GI 100%: Renal Cancer.
The subject of assay [9] is KM12. Description: NCI60 anti-cancer screening. The following applies: for GI50 / CC50: Homo sapiens; for GI50 / GI 100%: KM12; for CC50: KM12, read-out: LC 50%; for GI 100%: Colon Cancer.
Assay [10] deals with IGROV1. Description: NCI60 anti-cancer screening. Conditions: for GI50 / CC50: Homo sapiens; for GI50: IGROV-1; for CC50: IGROV-1, read-out: LC 50%; for GI 100%: IGROV1, Ovarian Cancer.
For assay [11], the system named is NCI-H460. The experiment in a line: NCI60 anti-cancer screening. The following applies: for GI50 / CC50: Homo sapiens; for GI50 / GI 100%: NCI-H460; for CC50: NCI-H460, read-out: LC 50%; for GI 100%: Non-small cell lung carcinoma.
The test system of assay [12] is A549/ATCC. Description: NCI60 anti-cancer screening. The following applies: for GI 100%: A549/ATCC, Non-small cell lung carcinoma; for GI50 / CC50: Homo sapiens; for GI50: A549; for CC50: A549, read-out: LC 50%.
The subject of assay [13] is SNB-19. Description: NCI60 anti-cancer screening. The following applies: for GI50 / CC50: Homo sapiens; for GI50 / GI 100%: SNB-19; for CC50: SNB-19, read-out: LC 50%; for GI 100%: CNS Cancer.

In general, GI50 refers to the concentration at which growth is held to half of that of the control. The low end stands for more potent growth inhibition, the high end for less potent growth inhibition. Regarding `COCCOC(=O)C1=C(C)NC2=C(C(=O)CC(c3ccc(Cl)cc3)C2)C1c1ccccc1F` (centres unmarked) [Compound 3], in [1], the “GI 100%” value is above 10 µM, the GI50 was 8.93 µM and the CC50 is above 10 µM. For the same compound, the “effect of VDAC3 knockdown on compound-induced cell death” value in [2] is “suppressed”. Also, in assay [3], the GI50 is 6.82 µM, the CC50 was above 10 µM and the “GI 100%” value was above 10 µM. For the same compound, in [4], halving of growth (GI50) required 9.8 µM and the CC50 is above 10 µM. Also, in [5], the “GI 100%” value is above 10 µM, the concentration for 50% growth inhibition (GI50) stood at 6.18 µM and the CC50 was above 10 µM. For the same compound, in assay [6], the “biologically active compounds that suppress compound-induced cell death” value is “anti-oxidants (GSH, BHT, Vit. E), iron chelators (L-mim, DFOM), and a protein synthesis inhibitor (cycloheximide)”; the “effect of MEK1/2 inhibitor (U0126) on compound-induced cell death” value is listed as “completely blocked”.
As for `CCc1c(O)c2c(c(O)c1O[C@H]1O[C@@H](COC(C)=O)[C@H](OC(C)=O)[C@@H](CC(C)=O)[C@@H]1OC(C)=O)C(=O)C(O[C@@H]1O[C@H](COC(C)=O)[C@@H](OC(C)=O)[C@H](OC(C)=O)[C@H]1OC(C)=O)=C(O[C@@H]1O[C@H](COC(C)=O)[C@@H](OC(C)=O)[C@H](OC(C)=O)[C@H]1OC(C)=O)C2=O` [Compound 6], the concentration for 50% growth inhibition (GI50) in assay [7] was 3.52 µM; in [8], 8.1 µM; in assay [9], 5.2 µM; in [4], 0.516 µM; in assay [5], 1.48 µM. Moreover, the CC50 in assay [7] is above 10 µM; in assay [8] it was above 10 µM; in [9], above 10 µM; in [4] it was 8.25 µM; in assay [5], above 10 µM. The “GI 100%” value in [8] is above 10 µM; in assay [9], above 10 µM; in [5] it was 4.31 µM. Also, in assay [6], the “biologically active compounds that suppress compound-induced cell death” value is reported as “only reduced glutathione (GSH) was able to inhibit”.
`COC(=O)c1ccc(C2c3[nH]c4ccccc4c3CC(C(=O)OC)N2C(=O)CCl)cc1` (centres unmarked) [Compound 27]: the 50% growth inhibitory concentration (GI50) in [10] was 0.0209 µM; in [11], 1.43 µM; in [1], 2.56 µM; in assay [7], 0.353 µM; in assay [12], 2.51 µM; in assay [8], 1.25 µM. The GI50 was determined as 2.35 µM in assay [13]; 0.02 µM in assay [3]; 0.188 µM in [9]; 0.28 µM in [4]; 0.0991 µM in assay [5]. Also, the CC50 in assay [10] was 0.27 µM; in assay [11], 6.74 µM; in assay [1] it was above 10 µM; in assay [7], 6.59 µM; in assay [12] it was above 10 µM; in [8], 6.12 µM. Moreover, the CC50 in assay [13] was above 10 µM; in assay [3], 0.0743 µM; in [9], 4.15 µM; in assay [4] it was 1.2 µM; in assay [5] it was 5.85 µM. In addition, the “GI 100%” value is 0.0571 µM in assay [10]; 3.11 µM in [11]; above 10 µM in assay [1]; above 10 µM in assay [12]; 2.77 µM in [8]; 7.41 µM in assay [13]. Further, the “GI 100%” value in [3] was 0.0385 µM; in assay [9], 1.19 µM; in assay [5] it was 1.07 µM. Moreover, in [2], the “effect of VDAC3 knockdown on compound-induced cell death” value was “not affected”. For the same compound, the “effect of pan-caspase inhibitors (z-VAD-fmk, Boc-D-fmk) on compound-induced cell death” value in assay [6] is given as “not blocked”. In assay [6], the “biologically active compounds that suppress compound-induced cell death” value is “GSH, L-Mim, TLCK, DFOM, SU6656, Ro31-8220, and U0126 were effective”.
Consider `C=C1CCC2C(C)(C)CCC[C@]2(C)C1CC/C(C)=C\CC/C(C)=N/NC(N)=S` (some centres unmarked) [Compound 36], for which the GI50 in assay [10] was 0.254 µM; in [11] it was 0.626 µM; in assay [1], 1.04 µM; in assay [7], 0.204 µM; in assay [12], 1.11 µM; in [8] it was 0.351 µM. In addition, the GI50 was found to be 1.05 µM in [13]; 0.125 µM in assay [3]; 0.469 µM in assay [9]; 0.163 µM in [4]; 0.479 µM in assay [5]. Besides, the CC50 amounted to 4.17 µM in [10]; 5.02 µM in assay [11]; 5.27 µM in assay [1]; 4.2 µM in [7]; 5.15 µM in [12]; 3.67 µM in assay [8]. Besides, the CC50 in assay [13] was 5 µM; in assay [3], 1.47 µM; in assay [9], 4.47 µM; in assay [4], 2.62 µM; in assay [5], 3.96 µM. The “GI 100%” value in [10] was 1.28 µM; in assay [11], 2.02 µM; in assay [1], 2.34 µM; in assay [12] it was 2.4 µM; in assay [8], 1.35 µM; in assay [13] it was 2.29 µM. The entries for the “GI 100%” value in assay [3], in assay [9] and in [5] were 0.385 µM, 1.8 µM and 1.52 µM, respectively. For the same compound, the “biologically active compounds that suppress compound-induced cell death” value in assay [6] is “iron chelators (L-Mim and DFOM) and a protein synthesis inhibitor (cycloheximide) were effective”. Further, the “effect of MEK1/2 inhibitor (U0126) on compound-induced cell death” value in assay [6] is listed as “inability of MEK1/2 inhibitors to suppress”.
